{"source": "patent US9789114B2", "about": "“Compounds as HIF-1α inhibitors and manufacturing process thereof” (DONGGUK UNIVERSITY INDUSTRY-ACADEMIC COOPERATION FOUNDATION, priority 2011, dated 2017)", "test_system": "HIF-1α-mediated HRE transcriptional activity", "test": "Assay for inhibition of HIF-1α-mediated transcriptional activity (HRE reporter assay)", "assay_type": "cell-based, human", "details": "12 hours under hypoxia (1% O2); for inhibition at 10 µM: Homo sapiens, HCT-116, HCT116 cells, read-out: Inhibitory activity against HIF-1α (10 μM)", "experimental": "<Experiment 1> Assay for Inhibition of HIF-1α-Mediated Transcriptional Activity (HRE Reporter Assay)\nThe compounds can be developed as anti-cancer drugs, because the compounds inhibiting HIF-1α-mediated HRE transcriptional activity induced by hypoxia can suppress the growth and metastasis of cancer.\nInhibitory effects of the compounds according to the present invention, from Formula I-1 to I-42, on HIF-1α-mediated transcriptional activity were evaluated using this assay. pGL3-HRE-luciferase vector was constructed as follows. Six copies of HRE (Hypoxia Responsive Element, 5′-ACGTG-3′) from human VEGF genes were inserted into the multi-cloning site of a pGL3-basic vector (Promega). A luciferase gene was used as a reporter gene.\nIn detail, HCT116(ATCC #CCL-247) human colon cancer cells were seeded in 48-well cell culture plates. The cells were co-transfected with 25 ng of pGL3-HRE-luciferase and 2.5 ng of Renila control vectors using Polyfect reagent next day. After 24 hours of incubation, the cells were incubated for an additional 4 hours with replaced cell culture media. The cells were treated with various concentrations (0, 1, 3, 5, 10, and 20 μM) of the above compounds according to the present invention and incubated for 12 hours under hypoxia (1% O2, 94% N2, and 5% CO2). The luciferase assay was performed using a dual-luciferase reporter assay system (Promega). After cell lysate preparation with RIPA buffer, induced luciferase activity under hypoxic conditions was determined to examine inhibitory effects of the compounds according to the present invention, from Formula I-1 to I-42, on HIF-1α-mediated transcriptional activity."}
{"smiles": "CN(C)C(=O)COc1ccc(C23CC4CC(CC(C4)C2)C3)cc1", "note": "[Compound I-1, 2-(4-(Adamantan-1-yl)phenoxy)-N,N-dimethylacetamide]", "values": [{"measurement": "inhibition at 10 µM", "value": "51 to 75", "unit": "%"}]}
{"smiles": "O=C(COc1ccc(C23CC4CC(CC(C4)C2)C3)cc1)NC1CC1", "note": "[Compound I-2, 2-(4-(Adamantan-1-yl)phenoxy)-N-cyclopropylacetamide]", "values": [{"measurement": "inhibition at 10 µM", "value": "76 to 100", "unit": "%"}]}
{"smiles": "CN1CCN(C(=O)COc2ccc(C34CC5CC(CC(C5)C3)C4)cc2)CC1.Cl", "note": "[Compound I-4, 4-(2-(4-(Adamantan-1-yl)phenoxy)acetyl)-1-methylpiperazin-1-ium chloride]", "values": [{"measurement": "Inhibitory activity against HIF-1α (10 μM)", "setting": "HCT116 cells", "value": "A (A(76˜100%))"}]}
{"smiles": "Cc1cc(C23CC4CC(CC(C4)C2)C3)ccc1OCC(=O)N1CCN(C)CC1", "note": "[Compound I-5, 2-(4-(Adamantan-1-yl)-2-methylphenoxy)-1-(4-methylpiperazin-1-yl)ethanone]", "values": [{"measurement": "inhibition at 10 µM", "value": "76 to 100", "unit": "%"}]}
{"smiles": "Cc1cc(C23CC4CC(CC(C4)C2)C3)ccc1OCC(=O)NCCN(C)C", "note": "[Compound I-7, 2-(4-(Adamantan-1-yl)-2-methylphenoxy)-N-(2-(dimethylamino)ethyl)acetamide]", "values": [{"measurement": "inhibition at 10 µM", "value": "51 to 75", "unit": "%"}]}
{"smiles": "O=C(CCOc1ccc(C23CC4CC(CC(C4)C2)C3)cc1)N1CCOCC1", "note": "[Compound I-9, 3-(4-(Adamantan-1-yl)phenoxy)-1-morpholinopropan-1-one]", "values": [{"measurement": "inhibition at 10 µM", "value": "76 to 100", "unit": "%"}]}
{"smiles": "CN(C)CCNC(=O)CCOc1ccc(C23CC4CC(CC(C4)C2)C3)cc1", "note": "[Compound I-10, 3-(4-(Adamantan-1-yl)phenoxy)-N-(2-(dimethylamino)ethyl)propanamide]", "values": [{"measurement": "inhibition at 10 µM", "value": "26 to 50", "unit": "%"}]}
{"smiles": "Cc1cc(C23CC4CC(CC(C4)C2)C3)ccc1OCCC(=O)N1CCN(C)CC1", "note": "[Compound I-11, 3-(4-(Adamantan-1-yl)-2-methylphenoxy)-1-(4-methylpiperazin-1-yl)propan-1-one]", "values": [{"measurement": "inhibition at 10 µM", "value": "76 to 100", "unit": "%"}]}
{"smiles": "Cc1cc(C23CC4CC(CC(C4)C2)C3)ccc1OCCC(=O)N1CCOCC1", "note": "[Compound I-12, 3-(4-(Adamantan-1-yl)-2-methylphenoxy)-1-morpholinopropan-1-one]", "values": [{"measurement": "inhibition at 10 µM", "value": "76 to 100", "unit": "%"}]}
{"smiles": "Cc1cc(C23CC4CC(CC(C4)C2)C3)ccc1OCCC(=O)NCCN(C)C", "note": "[Compound I-13, 3-(4-(Adamantan-1-yl)-2-methylphenoxy)-N-(2-(dimethylamino)ethyl)propanamide]", "values": [{"measurement": "inhibition at 10 µM", "value": "51 to 75", "unit": "%"}]}
{"smiles": "CN1CCN(C(=O)CCCOc2ccc(C34CC5CC(CC(C5)C3)C4)cc2)CC1", "note": "[Compound I-14, 4-(4-(Adamantan-1-yl)phenoxy)-1-(4-methylpiperazin-1-yl)butan-1-one]", "values": [{"measurement": "inhibition at 10 µM", "value": "51 to 75", "unit": "%"}]}
{"smiles": "C[N+]1(C)CCN(C(=O)COc2ccc(C34CC5CC(CC(C5)C3)C4)cc2)CC1", "note": "[Compound I-15, 4-(2-(4-(Adamantan-1-yl)phenoxy)acetyl)-1,1-dimethylpiperazine-1-ium iodide]", "values": [{"measurement": "inhibition at 10 µM", "value": "26 to 50", "unit": "%"}]}
{"smiles": "Cc1cc(C23CC4CC(CC(C4)C2)C3)ccc1OCC(=O)NCC[N+](C)(C)C", "note": "[Compound I-17, 2-(2-(4-(Adamantan-1-yl)-2-methylphenoxy)acetamido)-N,N,N-trimethylethanaminium iodide]", "values": [{"measurement": "inhibition at 10 µM", "value": "26 to 50", "unit": "%"}]}
{"smiles": "C[N+]1(C)CCN(C(=O)CCOc2ccc(C34CC5CC(CC(C5)C3)C4)cc2)CC1", "note": "[Compound I-18, 4-(3-(4-(Adamantan-1-yl)phenoxy)propanoyl)-1,1-dimethylpiperazin-1-ium iodide]", "values": [{"measurement": "inhibition at 10 µM", "value": "26 to 50", "unit": "%"}]}
{"smiles": "Cc1cc(C23CC4CC(CC(C4)C2)C3)ccc1OCCC(=O)N1CC[N+](C)(C)CC1", "note": "[Compound I-20, 4-(3-(4-(Adamantan-1-yl)-2-methylphenoxy)propanoyl)-1,1-dimethylpiperazin-1-ium iodide]", "values": [{"measurement": "inhibition at 10 µM", "value": "76 to 100", "unit": "%"}]}
{"smiles": "Cc1cc(C23CC4CC(CC(C4)C2)C3)ccc1OCCC(=O)NCC[N+](C)(C)C", "note": "[Compound I-21, 2-(3-(4-(Adamantan-1-yl)-2-methylphenoxy)propanamido)-N,N,N-trimethylethanaminium iodide]", "values": [{"measurement": "inhibition at 10 µM", "value": "26 to 50", "unit": "%"}]}
{"smiles": "CN1CCN(C(=O)COc2ccc(C34CC5CC(CC(C5)C3)C4)cc2F)CC1", "note": "[Compound I-25, 2-(4-(Adamantan-1-yl)-2-fluorophenoxy)-1-(4-methylpiperazin-1-yl)ethanone]", "values": [{"measurement": "inhibition at 10 µM", "value": "51 to 75", "unit": "%"}]}
{"smiles": "O=C(COc1ccc(C23CC4CC(CC(C4)C2)C3)cc1)NCc1ccco1", "note": "[Compound I-26, 2-(4-(Adamantan-1-yl)phenoxy)-N-(furan-2-ylmethyl)acetamide]", "values": [{"measurement": "inhibition at 10 µM", "value": "76 to 100", "unit": "%"}]}
{"smiles": "O=C(COc1ccc(C23CC4CC(CC(C4)C2)C3)cc1)N1CCN(Cc2ccc(C(F)(F)F)cc2)CC1", "note": "[Compound I-27, 2-(4-(Adamantan-1-yl)phenoxy)-1-(4-(4-(trifluoromethyl)benzyl)piperazin-1-yl)ethanone]", "values": [{"measurement": "inhibition at 10 µM", "value": "76 to 100", "unit": "%"}]}
{"smiles": "CC(C)N1CCN(C(=O)COc2ccc(C34CC5CC(CC(C5)C3)C4)cc2)CC1", "note": "[Compound I-28, 2-(4-(Adamantan-1-yl)phenoxy)-1-(4-isopropylpiperazin-1-yl)ethanone]", "values": [{"measurement": "inhibition at 10 µM", "value": "51 to 75", "unit": "%"}]}
{"smiles": "CC(C)(C)OC(=O)N1CCN(C(=O)COc2ccc(C34CC5CC(CC(C5)C3)C4)cc2)CC1", "note": "[Compound I-29, tert-Butyl 4-(2-(4-(adamantan-1-yl)phenoxy)acetyl)piperazine-1-carboxylate]", "values": [{"measurement": "inhibition at 10 µM", "value": "51 to 75", "unit": "%"}]}
{"smiles": "O=C(COc1ccc(C23CC4CC(CC(C4)C2)C3)cc1)N1CCNCC1", "note": "[Compound I-30, 2-(4-(Adamantan-1-yl)phenoxy)-1-(piperazin-1-yl)ethanone]", "values": [{"measurement": "inhibition at 10 µM", "value": "76 to 100", "unit": "%"}]}
{"smiles": "C[C@H]1CN(C(=O)OC(C)(C)C)CCN1C(=O)COc1ccc(C23CC4CC(CC(C4)C2)C3)cc1", "note": "[Compound I-31, (S)-tert-Butyl 4-(2-(4-(adamantan-1-yl)phenoxy)acetyl)-3-methylpiperazine-1-carboxylate]", "values": [{"measurement": "inhibition at 10 µM", "value": "76 to 100", "unit": "%"}]}
{"smiles": "C[C@H]1CNCCN1C(=O)COc1ccc(C23CC4CC(CC(C4)C2)C3)cc1", "note": "[Compound I-32, 2-(4-(Adamantan-1-yl)phenoxy)-1-((S)-2-methylpiperazin-1-yl)ethanone]", "values": [{"measurement": "inhibition at 10 µM", "value": "76 to 100", "unit": "%"}]}
{"smiles": "C[C@@H]1CN(C(=O)OC(C)(C)C)CCN1C(=O)COc1ccc(C23CC4CC(CC(C4)C2)C3)cc1", "note": "[Compound I-33, (R)-tert-Butyl 4-(2-(4-(Adamantan-1-yl)phenoxy)acetyl)-3-methylpiperazine-1-carboxylate]", "values": [{"measurement": "inhibition at 10 µM", "value": "76 to 100", "unit": "%"}]}
{"smiles": "C[C@@H]1CNCCN1C(=O)COc1ccc(C23CC4CC(CC(C4)C2)C3)cc1", "note": "[Compound I-34, 2-(4-(Adamantan-1-yl)phenoxy)-1-((R)-2-methylpiperazin-1-yl)ethanone]", "values": [{"measurement": "inhibition at 10 µM", "value": "51 to 75", "unit": "%"}]}
{"smiles": "O=C(COc1ccc(C23CC4CC(CC(C4)C2)C3)cc1)N1CCN(CCO)CC1", "note": "[Compound I-35, 2-(4-(Adamantan-1-yl)phenoxy)-1-(4-(2-hydroxyethyl)piperazin-1-yl)ethanone]", "values": [{"measurement": "inhibition at 10 µM", "value": "26 to 50", "unit": "%"}]}
{"smiles": "C#CCN1CCN(C(=O)COc2ccc(C34CC5CC(CC(C5)C3)C4)cc2)CC1", "note": "[Compound I-36, 2-(4-(Adamantan-1-yl)phenoxy)-1-(4-(prop-2-yn-1-yl)piperazin-1-yl)ethanone]", "values": [{"measurement": "inhibition at 10 µM", "value": "51 to 75", "unit": "%"}]}
{"smiles": "CN1CCN(c2ccc(NC(=O)COc3ccc(C45CC6CC(CC(C6)C4)C5)cc3)cc2)CC1", "note": "[Compound I-37, 2-(4-(Adamantan-1-yl)phenoxy)-N-(4-(4-methylpiperazin-1-yl)phenyl)acetamide]", "values": [{"measurement": "inhibition at 10 µM", "value": "1 to 25", "unit": "%"}]}
{"smiles": "O=C(COc1ccc(C23CC4CC(CC(C4)C2)C3)cc1)Nc1ccc(N2CCS(=O)(=O)CC2)cc1", "note": "[Compound I-38, 2-(4-(Adamantan-1-yl)phenoxy)-N-(4-(1,1-dioxidothiomorpholino)phenyl)acetamide]", "values": [{"measurement": "inhibition at 10 µM", "value": "51 to 75", "unit": "%"}]}
{"smiles": "O=C(COc1ccc(C23CC4CC(CC(C4)C2)C3)cc1)N1CCn2c(nnc2C(F)(F)F)C1", "note": "[Compound I-39, 2-(4-(Adamantan-1-yl)phenoxy)-1-(3-(trifluoromethyl)-5,6-dihydro-[1,2,4]triazolo[4,3-a]pyrazin-7(8H)-yl)ethanone]", "values": [{"measurement": "inhibition at 10 µM", "value": "26 to 50", "unit": "%"}]}
{"smiles": "O=C(COc1ccc(C23CC4CC(CC(C4)C2)C3)cc1)NC12CC3CC(CC(C3)C1)C2", "note": "[Compound I-40, N-(adamantan-1-yl)-2-(4-(adamantan-1-yl)phenoxy)acetamide]", "values": [{"measurement": "inhibition at 10 µM", "value": "1 to 25", "unit": "%"}]}
{"smiles": "O=C(COc1ccc(C23CC4CC(CC(C4)C2)C3)cc1)NC12CC3CC(CC(O)(C3)C1)C2", "note": "[Compound I-41, 2-(4-(Adamantan-1-yl)phenoxy)-N-(3-hydroxyadamantan-1-yl)acetamide]", "values": [{"measurement": "inhibition at 10 µM", "value": "76 to 100", "unit": "%"}]}
{"smiles": "CN1CCN(C(=O)COc2ccc(C34CC5CC(CC(C5)C3)C4)cc2Cl)CC1", "note": "[Compound I-42, 2-(4-(Adamantan-1-yl)-2-chlorophenoxy)-1-(4-methylpiperazin-1-yl)ethanone]", "values": [{"measurement": "inhibition at 10 µM", "value": "51 to 75", "unit": "%"}]}
